{"source": "patent US20130337463A1", "about": "“Cell-Based Models of Neurodegenerative Disease” (The Trustees of the University of Pennsylvania, priority 2010, published 2013)", "key": {"[1]": {"system": "T40/P301L-transfected cells", "assay": "Fibril-alone transduction without BioPORTER reagent (spontaneous PFF uptake)", "type": "cell-based, human", "procedure": "For fibril-alone transduction without BioPORTER reagent, cells were placed on starvation medium right before the addition of fibrils. Fibrils were processed as described above and the same amount was used as in reagent-mediated transduction. Cells were trypsinized and replated either 4 hr or 30 hr after the initial addition of fibrils. For experiments using WGA, different doses of WGA were added to starvation medium together with PFFs. To inhibit endocytosis of WGA, 0.1 M GlcNAc was incubated with medium containing PFFs and 10 µg/ml WGA for 1 hr at 37° C. before being added to cells which were pre-incubated in 0.1M GlcNAc-containing medium for 1 hr. Cells were placed on WGA-free starvation medium 5-6 hr after fibril addition and fixed after overnight incubation to minimize possible toxicity resulted from WGA treatment.\nImmunocytochemistry was performed 48 hr after the initial addition of fibrils unless indicated otherwise. Cells were fixed in 4% paraformaldehyde (PFA) for 10 min and permeabilized with 0.1% Triton-X100 for 15 min, or fixed with 4% PFA containing 1% Triton-X100 for 15 min to remove soluble proteins. For visualization of microtubules, cells were fixed with 0.3% glutaraldehyde in PEM buffer (80 mM PIPES, pH6.8, 5 mM EGTA, 1 mM MgCl2) for 10 min, extracted with 1% Triton-X100 for 15 min before being quenched with 10 mg/ml sodium borohydride for 7 min followed by 0.1 M glycine for 20 min. […]\nFor quantifying the percentage of cells developing tau aggregates with different combinations of endogenous tau and PFFs, 10-20 random-field images were taken at 40× magnification for each combination and at least two independent experiments were performed. For quantification of MT-bundling and PFF-induced tau aggregation in the absence of bioPORTER reagent under various conditions (i.e. different temperatures, with or without WGA/GlcNAc), 10 random-field images were taken at 20× magnification for each condition in each experiment and 3-4 independent experiments were performed. […]"}, "[2]": {"system": "primary hippocampal neurons derived from WT C57BL6 mice", "assay": "p-α-syn aggregate formation in primary hippocampal neurons after pff addition", "type": "cell-based, mouse", "details": "for p-α-syn aggregate formation: pffs added to DIV5 neurons, 2 weeks", "procedure": "Primary neuronal cultures were prepared from E16-E18 C57BL/6 mouse brains (Charles River, Wilmington, Mass.) and α-syn −/− mice (Abeliovich et al., 2000, Neuron 25:239-252). All procedures were performed according to the NIH Guide for the Care and Use of Experimental Animals and were approved by the University of Pennsylvania Institutional Animal Care and Use Committee. Hippocampi were dissected, rinsed with Hank's Balanced Salt Solution (HBSS) and digested in HBSS containing papain (20 U/mL; Worthington Biochemical Corporation; Lakewood, N.J.) containing DNase (20 μg/mL; Worthington Biochemical Corporation; Lakewood, N.J.). Following rinses in plating media (10% fetal bovine serum, 1% penicillin/streptomycin, Glutamax, B27, Neurobasal media; Invitrogen, Carlsbad, Calif.) and HBSS, dissociated hippocampal neurons were plated in plating media onto poly-D-lysine (0.1 mg/mL, diluted in borate buffer, 0.1M, pH8.4) coated coverslips (Carolina Biological Supply, Burlington, N.C.) in 24 well trays at 20,000-40,000 cells/cm^2 or poly-D-lysine coated 60 mm dishes at 70-100,000 cells/cm2. The media was then changed to neuronal media (1% penicillin/streptomycin, Glutamax, B27, Neurobasal media). Most experiments were performed at 19 days in vitro (DIV).\nRecombinant full-length and truncated α-syn with and without a C-terminal myc-tag, were purified as previously described (Giasson et al., 2001, J. Biol. Chem. 276:2380-2386). α-syn pffs were generated by incubating purified α-syn (5 mg/mL in PBS) at 37° C. with constant agitation for 5 days, followed by aliquoting and storage at […]. The presence of amyloid was confirmed using Thioflavin T fluorometry. Fibrils of α-syn synthetic NAC peptide (amino acids 61-95) (Biotechnology Resource Center, Yale University) were generated as described (Giasson et al., 2001, J. Biol. Chem. 276:2380-2386). Pffs were diluted in PBS at 0.1 mg/mL, sonicated several times, and diluted in neuronal media. For a 24-well tray, 1 μg/mL of pffs were added, and 5 μg/mL of α-syn pffs were added to a […]. For WGA experiments, α-syn pffs were incubated with 1 μg/mL or 5 μg/mL WGA or preincubated for 1 hr (h) with 0.1 M GlcNAC followed by incubation with media containing α-syn pffs, GlcNAC, and WGA.\nNeurons were fixed with 4% paraformaldehyde in PBS containing 4% sucrose followed by permeabilization with 0.1% Triton X-100. To determine if the pathologic α-syn aggregates were detergent-insoluble, neurons were fixed with 4% paraformaldehyde, 4% sucrose and 1% Tx-100 (Luk et al., 2009, Proc. Natl. Acad. Sci. USA 106:20051-20056). Following fixation, neurons were blocked with 3% bovine serum albumin (BSA) in PBS, and incubated in primary antibodies (Table 6) followed by Alex fluor 594 or 488-conjugated secondary antibodies (anti-mouse, anti-rabbit, anti-IgG1 and anti-IgG2a; Invitrogen; Carlsbad, Calif.) diluted in blocking buffer. To assess cell viability, cells were incubated with ethidium homodimer (2 μM, Sigma Aldrich, St. Louis, Mo.) and Hoechst 33342 (1:1000, Invitrogen, Carlsbad, Calif.) and the percent overlap between both dyes was determined using Metamorph software (Molecular Devices, Sunnyvale, Calif.)."}, "AMPAR": {"system": "AMPAR", "details": "published (Dev et al., 1996); cited from earlier work"}, "[3]": {"system": "QBI-WT-Syn cells (QBI-293 cells stably expressing WT α-Syn)", "assay": "α-Syn inclusion formation after Bioporter transduction of QBI-WT-Syn cells", "type": "cell-based, human", "details": "immunostaining 48 h after transduction", "procedure": "QBI cells were plated in 35-mm tissue culture plates and allowed to reach 80-90% confluence for transduction experiments. Cells were transferred to serum-free media 1 h before transduction. For each plate, 10 μL of cationic-liposomal protein transduction reagent (Bioporter; Sigma) was added to a 1.5-mL Microfuge tube and evaporated as per the manufacturer's guidelines. The resulting reagent dry-film was then directly resuspended with 80 μL of PBS containing α-Syn fibrils (100 μg/mL) fragmented by brief sonication with a hand-held probe. Protein:reagent complexes were allowed to form at room temperature for 10 min, after which the mixture was further diluted in OptiMEM (Invitrogen) and added to cells. Cells were then further incubated for 4 h, washed twice with Versene and 0.5% trypsin/EDTA to remove extracellular α-Syn fibrils, and transferred onto 6-well tissue culture plates or poly(d-lysine)-coated glass coverslips. […]\nCells on coverslips were washed with PBS and fixed with 4% paraformaldehyde. […] Epifluorescence images were obtained by using a Nikon Eclipse 3000 inverted microscope equipped with a CoolSNAP HQ camera (Roper Scientific) and analyzed by using Metamorph 6.0 (Molecular Devices). […] Confocal laser scanning microscopic images were obtained by using a Zeiss LSM510 microscope and analyzed by using Volocity software (Improvision)."}}, "data": [{"compound": "CC(=O)N[C@H]1C(O)O[C@H](CO)[C@@H](O)[C@@H]1O", "note": "(stereo partly shown) [GlcNAc, N-acetyl glucosamine]", "values": [{"measurement": "effect on WGA-enhanced PFF uptake and tau aggregation", "setting": "[1]; 0.1 M GlcNAc added to the medium", "result": "significantly attenuated"}, {"measurement": "effect on WGA-enhanced aggregate formation", "setting": "[2]; 0.1 M GlcNAc", "result": "reduced the effects of WGA on α-syn pff-induced aggregate formation"}]}, {"compound": "NS(=O)(=O)c1cccc2c1c([N+](=O)[O-])cc1nc(O)c(O)nc12", "note": "[NBQX]", "values": [{"measurement": "IC50", "setting": "AMPAR", "result": 0.047, "unit": "µM"}]}, {"compound": "wheat germ agglutinin [WGA]", "values": [{"measurement": "effect on prevalence of tau aggregate-bearing cells", "setting": "[1]; co-incubated with myc-K18/P301L PFFs, 0, 5, 10, 15 µg/ml WGA", "result": "increased the prevalence of tau aggregate-bearing cells"}, {"measurement": "accumulation of insoluble tau in the absence of PFFs", "setting": "[1]; up to 15 µg/ml of WGA", "result": "nor does it induce accumulation of insoluble tau in the absence of PFFs"}, {"measurement": "effect on extent of p-α-syn pathology", "setting": "[2]; co-incubation with α-syn-hWT pffs, 1 or 5 μg/mL WGA, 4 days", "result": "dose-dependently increased the extent of p-α-syn pathology"}]}, {"compound": "α-syn-1-89: human α-syn pffs composed of residues 1-89", "values": [{"measurement": "p-α-syn aggregate formation", "setting": "[2]", "result": "robust accumulation of endogenous p-α-syn aggregates"}]}, {"compound": "α-syn-58-140: human α-syn pffs composed of residues 58-140", "values": [{"measurement": "p-α-syn aggregate formation", "setting": "[2]", "result": "seeded formation of endogenous mouse α-syn aggregates"}]}, {"compound": "α-syn-NAC: fibrils of α-syn synthetic NAC peptide (amino acids 61-95)", "values": [{"measurement": "p-α-syn aggregate formation", "setting": "[2]", "result": "resulted in endogenous mouse α-syn fibrillar LB-like aggregates"}]}, {"compound": "β-galactosidase: unrelated soluble protein", "values": [{"measurement": "inclusion formation", "setting": "[3]", "result": "did not result in inclusion formation"}]}]}
